Data: paper PMC8981703 (BMC Medicine, 2022)

Columns and labels:
[1] = tested on: Chinese patients with RRMM; test: MARCH: safety (TEAEs, CTCAE version 4.03), exposure, dose modification, disposition; format: in vivo
Method: (§1) Response assessment was performed every 28 days on day 1 of each cycle. Adverse event (AE) was assessed using the NCI Common Terminology Criteria for Adverse Events (CTCAE) version 4.03. […] Plasma concentrations were determined at the following distinct time points: pre-dose, 0.5 h, 1 h, 1.5 h, 2 h, 3 h, 4 h, 5 h, 6 h, 8 h, 10 h, 24 h, and 48 h. Pharmacokinetics ethnicity sensitivity analysis was performed to evaluate the potential impact of ethnic factors on the acceptability and difference in the data of Chinese and western patients.
Patients who received at least 1 dose of study treatment (modified intent-to-treat [mITT]/safety population) were used for efficacy and safety analysis. Demographics, baseline disease characteristics, and prior anti-MM therapies were summarized for the mITT populations. For the primary analysis of ORR, the primary endpoint, the sample size of 82 patients would provide 80% power to detect a statistical significance with the target ORR of 28% against the threshold ORR (i.e., null hypothesis) of 15% (one-sided α=0.025); statistical significance would be declared if the lower bound of the 95% confidence interval (CI) would be greater than 15%. Time to event endpoints including PFS, OS, and DOR were analyzed using the Kaplan-Meier method.

clinical = format: in vivo, human; conditions: plasma
Method: as §1
PK parameters were obtained by analyzing adequate plasma drug concentration data and calculated using the NCA model with Phoenix WinNonlin v8.3.1. The descriptive statistics of PK parameters were summarized using SAS 9.4.

O=C(/C=C\n1cnc(-c2cc(C(F)(F)F)cc(C(F)(F)F)c2)n1)NNc1cnccn1 [selinexor, Selinexor]
median number of dose reductions ([1]; among the patients with dose reductions): 2 | median time to the first dose reduction ([1]; in vivo): 22.0 days | patients with a reduction to 80 mg weekly ([1]; in vivo): 20.7% | patients with a reduction to 100–120 mg weekly ([1]; in vivo): 40.2% | patients with dose interruptions ([1]; in vivo): 75.6% | patients with dose reductions ([1]; in vivo): 84.1% | Tmax (clinical; human, po, 80 mg, single dose selinexor 80 mg oral, C1D1, read-out: median T max): 2.88 h | AUC(0-t) (clinical; human, po, 80 mg, read-out: mean AUC0–48h): 5800 ng·h/mL | Cmax (clinical; human, po, 80 mg, read-out: mean C max): 862 ng/mL | half-life (clinical; human, po, 80 mg, read-out: mean t 1/2 (converted)): 6 h | median T max (clinical; single dose selinexor 80 mg oral, C1D1): 3 h
